# Laboratory results as given in patent US7968556B2, “Heteroaryl compounds, compositions thereof, and methods of treatment therewith” (Signal Pharmaceuticals, LLC, priority 2006, dated 2011).
# Molecular target: T1, IKK-2 (Homo sapiens, UniProt O14920, S177E/S181E)
# T1 sequence (O14920 1-756 S177E/S181E): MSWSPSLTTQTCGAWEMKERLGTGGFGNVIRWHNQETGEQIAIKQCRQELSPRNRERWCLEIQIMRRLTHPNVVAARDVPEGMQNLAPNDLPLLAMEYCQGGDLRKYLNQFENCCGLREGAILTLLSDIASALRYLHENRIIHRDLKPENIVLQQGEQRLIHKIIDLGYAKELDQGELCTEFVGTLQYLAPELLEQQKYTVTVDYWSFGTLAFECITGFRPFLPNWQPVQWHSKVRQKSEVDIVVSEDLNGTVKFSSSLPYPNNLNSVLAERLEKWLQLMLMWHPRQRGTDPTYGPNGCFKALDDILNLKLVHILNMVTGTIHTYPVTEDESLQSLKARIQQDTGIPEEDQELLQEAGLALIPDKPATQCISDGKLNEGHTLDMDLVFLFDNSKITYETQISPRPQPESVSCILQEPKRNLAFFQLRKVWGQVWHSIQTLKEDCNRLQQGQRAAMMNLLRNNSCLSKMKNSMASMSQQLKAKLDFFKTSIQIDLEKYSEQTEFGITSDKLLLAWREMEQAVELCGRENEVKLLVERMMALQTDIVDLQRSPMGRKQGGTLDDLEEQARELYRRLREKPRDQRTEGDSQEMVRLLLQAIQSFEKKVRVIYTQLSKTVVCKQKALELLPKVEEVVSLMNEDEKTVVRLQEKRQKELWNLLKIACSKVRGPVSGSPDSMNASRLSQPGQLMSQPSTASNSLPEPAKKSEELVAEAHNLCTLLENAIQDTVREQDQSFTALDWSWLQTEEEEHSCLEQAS
# Assay: IKK-2 screening assay (IKK2EE 33P Assay / IKK2EE NEMO HTRF Assay)
# Type: biochemical
# Method: The following is an example of an assay that can be used to determine the IKK2EE inhibitory activity of a test compound.
# A reaction buffer (pH 7.8) is prepared containing HEPES (20 mM), MgCl2 (10 mM), EDTA (0.1 mM), DTT (1 mM) and Triton X-100 (0.004%). IKK2EE (0.75 μg/ml is used. GST-IKBα (50 μg/ml) is used as substrate. Adenosine 5′-triphosphate (1.5 μM with ^33P-ATP 5 nCi/μl) is used. Reactions are stopped with trichloroacetic acid (6.25%).
# Appropriate amounts of test compounds or controls in 100% DMSO are added to the assay plate. A peptide-substrate solution (PSS) is prepared by adding peptide stock to an appropriate volume of buffer (peptide concentration in the PSS will be about 100 μg/ml). An enzyme-peptide solution (EPS) is prepared by adding enzyme stock to an appropriate volume of PSS (the enzyme concentration in the EPS will be about 1 μg/ml). An ATP solution is prepared by adding ATP stock to an appropriate volume of buffer (the ATP concentration will be 15 μM).
# 85 μl of EPS is added to the assay wells (or PSS to positive control wells) of 96 well polypropylene plates. The ATP solution is then completed by adding ^33P-ATP (to a final concentration of 50 μCi/ml).
# The reaction is initiated by adding 10 μl ATP solution to each well. Plates are shaken from about 12 seconds and allowed to incubate at room temperature for 1 hours. 100 μl of trichloroacetic acid solution (12.5%) is added to stop the reaction and the plates are incubated at room temperature for at least 10 minutes. The assay plates are harvested onto a Millipore Multiscreen harvest Plate FC using an appropriate harvester and the harvest plates are washed with 1×PBS solution for about 10 seconds (continuous flow). Harvest plates are allowed to dry thoroughly and the bottoms of the plates are sealed. 20-50 μl of Microscint20 is added to each well, tops are sealed and plates are read using an appropriate scintillation counter.
# A reaction buffer (pH 7.6) is prepared containing HEPES (20 mM), MgCl2 (10 mM), EDTA (0.05 mM), DTT (1 mM) and Triton X-100 (0.004%). IKK2EE-NEMO (0.7 μg/ml is used. GST-IKBα (0.5 μg/ml) is used as substrate. Adenosine 5′-triphosphate (1.5 μM) is used. Detection reagents used are mouse anti-P-IKBα (30 ng/ml), Eu anti-mouse (300 ng/ml) and Cy5 anti-GST (11.5 μg/ml). Reactions are stopped with EDTA (20 mM).
# An enzyme solution (ES) is prepared by adding enzyme stock to an appropriate volume of buffer (enzyme concentration in the ES will be about 1.7 ng/ml). A detection mixture (DM) is prepared by adding ATP (final conc. 3.75 μM), mouse anti-P-IKBα (final conc. 75 ng/ml), GST-IKBα (final conc. 1.26 μg/ml), Eu anti-mouse in buffer (final conc. 750 ng/ml).
# 5 μl of compound (solvated in 10% DMSO) is added to assay wells (or 10% DMSO to control wells) of low binding reaction plates. […] ES is added to assay wells (or buffer to control wells) and the reaction is initiated by adding 10 μl DM to all wells. Plates are incubated at room temperature for 45 minutes. Stop mixture is prepared by adding EDTA (final conc. 70 mM) and Cy5 anti-GST (final conc. 40 μg/ml) to an appropriate volume of buffer. Stop mixture is added and plates are shaken for 20 seconds and incubated at room temperature for at least 3 hours (preferably in the dark). Plates are read on an Analyst HT using Multi-Method HTRF.
row,IC50 [µM],SMILES
1,0.1 to 5,"NC(=O)c1nc(-c2cccnc2)nc2c1[nH]c(=O)n2[C@H]1CC[C@H](O)CC1 [Compound 50, 9-(trans-4-Hydroxycyclohexyl)-8-oxo-2-(pyridin-3-yl)-8,9-dihydro-7H-purine-6-carboxamide]"
2,> 30,"COc1ccccc1-n1c(=O)[nH]c2c(C(N)=O)nc(-c3ccnc(O)c3)nc21 [Compound 13, 2-(2-hydroxypyridin-4-yl)-9-(2-methoxyphenyl)-8-oxo-8,9-dihydro-7H-purine-6-carboxamide]"
3,> 30,"COc1ccccc1-n1c(=O)[nH]c2c(C(N)=O)nc(-c3ccc(O)cc3)nc21 [Compound 8, 2-(4-hydroxyphenyl)-9-(2-methoxyphenyl)-8-oxo-8,9-dihydro-7H-purine-6-carboxamide]"
